Test results published in patent publication US11702418B2, “SOS1 inhibitors” (priority 2019, dated 2023).
Where a name gives a salt, the structure may show the parent alone. Read-outs that look alike come from different tables or passages of the source.

Assays:
[1] = molecular target: recombinant human SOS1 polypeptide (amino acids 560-1049) (Homo sapiens (Human), UniProt Q07889); assay: biochemical; assay type: binding; settings: read-out: Ki, Inhibition of Labeled Tracer Binding to SOS1
Description: The ability of a compound of Formula (I) to bind to SOS1 was measured using a HTRF displacement assay. […] After a 1-hour incubation at room temperature, the HTRF signal was measured using Clairostar plate reader (BMG Labtech) according to the manufacturer's instructions. Excitation filter EX-TR was used, and emission 1 was detected at 650-610 nm and emission 2 detected at 620-610 nm. The HTRF ratio was calculated using the formula: [emission 1/emission 2]*10000.
Background signals were calculated from well with a 10 μM inhibitor, known to inhibit 100% at that concentration. The background subtracted signals were converted to % binding relative to DMSO controls. Data were analyzed using XLFIT software (IDBS) using a Morrison equation for competitive binding and Ki's were generated compound of Formula (I).

pERK in MKN1 cells = assay: cells; assay type: cell-based; settings: Homo sapiens
[2] = HTRF displacement, Cy5 labelled tracer, Morrison equation for competitive binding
[3] = MKN-1, pERK inhibition, In-Cell Western, MKN1 or H358 cells (Table 24 does not say which), 0.5-1 hour incubation, read-out: IC50

Sequence of recombinant human SOS1 polypeptide (amino acids 560-1049) (Q07889 560-1049): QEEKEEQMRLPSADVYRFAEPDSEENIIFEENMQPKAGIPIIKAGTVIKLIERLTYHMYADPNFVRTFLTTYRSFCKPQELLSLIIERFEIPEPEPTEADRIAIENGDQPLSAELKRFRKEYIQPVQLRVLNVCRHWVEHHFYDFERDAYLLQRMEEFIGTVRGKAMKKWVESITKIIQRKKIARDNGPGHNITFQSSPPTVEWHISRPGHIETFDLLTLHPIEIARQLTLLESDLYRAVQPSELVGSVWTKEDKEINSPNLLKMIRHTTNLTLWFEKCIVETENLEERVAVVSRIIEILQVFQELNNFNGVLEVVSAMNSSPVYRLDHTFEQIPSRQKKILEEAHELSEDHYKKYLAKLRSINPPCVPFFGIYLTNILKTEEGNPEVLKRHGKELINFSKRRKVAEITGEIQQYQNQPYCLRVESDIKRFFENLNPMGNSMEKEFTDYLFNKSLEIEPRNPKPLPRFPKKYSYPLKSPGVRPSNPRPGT

Row | SMILES | Ki [1, 2] [nM] | IC50 (pERK in MKN1 cells; [3]) [nM] | Ki [1] [nM] | IC50 (pERK in MKN1 cells; MKN-1) [nM] | IC50 (pERK in MKN1 cells; MKN-1, pERK inhibition, In-Cell Western, MKN1 or H358 cells (Table 24 does not say which), 0.5-1 hour incubation) [nM]
1 | Cc1c(C#N)cccc1[C@@H](C)Nc1nnc(C)c2cnc(N3C[C@H]4CC[C@@H]3CN4CC(F)(F)F)cc12 [Example 12-76] | 1.06 | 56 | – | – | –
2 | Cc1c([C@@H](C)Nc2nnc(C)c3cnc(N4CC(N(C)C)C4)cc23)cccc1C(F)(F)F [Example 12-20] | 1.6 | 62 | – | – | –
3 | Cc1c([C@@H](C)Nc2nnc(C)c3ccc(N4C[C@H]5CC[C@@H]4CN5C)cc23)cccc1C(F)(F)F [Example 10-32, 4-methyl-N-((R)-1-(2-methyl-3-(trifluoromethyl)phenyl)ethyl)-7-((1R,4R)-5-methyl-2,5-diazabicyclo[2.2.2]octan-2-yl)phthalazin-1-amine] | 0.2 | 28 | – | – | –
4 | Cc1c(C#N)cccc1[C@@H](C)Nc1nnc(C)c2cc(C(F)(F)F)c(N3CC(C)(O)C3)cc12 [Example 19-3, (R)-3-(1-((7-(3-hydroxy-3-methylazetidin-1-yl)-4-methyl-6-(trifluoromethyl)phthalazin-1-yl)amino)ethyl)-2-methylbenzonitrile] | 19.3 | 114 | – | – | –
5 | Cc1c([C@@H](C)Nc2nnc(C)c3cnc(N4CC5CC(C4)O5)cc23)cccc1C(F)(F)F [Example 12-2, 7-(6-oxa-3-azabicyclo[3.1.1]heptan-3-yl)-4-methyl-N—((R)-1-(2-methyl-3-(trifluoromethyl)phenyl)ethyl)pyrido[3,4-d]pyridazin-1-amine] | 0.6 | 9 | – | – | –
6 | Cc1c(C#N)cccc1[C@@H](C)Nc1nnc(C)c2cnc(N3CC(C)(O)C3)cc12 [Example 12-30] | 2.63 | 54 | – | – | –
7 | Cc1c([C@@H](C)Nc2nnc(C)c3ccc(N4CCC(C)(N(C)C)CC4)cc23)cccc1C(F)(F)F [Example 10-42, (R)-7-(4-(dimethylamino)-4-methylpiperidin-1-yl)-4-methyl-N-(1-(2-methyl-3-(trifluoromethyl)phenyl)ethyl)phthalazin-1-amine hydrochloride salt] | – | – | 0.31 | 43 | –
8 | Cc1c([C@@H](C)Nc2nncc3ccc(N4CCN(C)C(CF)C4)cc23)cccc1C(F)(F)F (stereo partly drawn) [Example 1-43, 7-(3-(fluoromethyl)-4-methylpiperazin-1-yl)-N-((R)-1-(2-methyl-3-(trifluoromethyl)phenyl)ethyl)phthalazin-1-amine] | 1.36 | 216 | – | – | –
9 | Cc1c(C#N)cccc1[C@@H](C)Nc1nnc(C)c2ccc(N3CC4(COCCN4C)C3)cc12 [Example 10-79, (R)-2-methyl-3-(1-((4-methyl-7-(5-methyl-8-oxa-2,5-diazaspiro[3.5]nonan-2-yl)phthalazin-1-yl)amino)ethyl)benzonitrile Formate salt] | – | – | 4.15 | 16 | –
10 | Cc1c(C#N)cccc1[C@@H](C)Nc1nnc(C)c2cnc(N3CCC(N(C)C)CC3)cc12 [Example 12-28] | 1.53 | 17 | – | – | –
11 | Cc1c(C#N)cccc1[C@@H](C)Nc1nnc(C)c2cnc(N3CCC(N4CCC4)CC3)cc12 [Example 12-29] | 1.67 | 16 | – | – | –
12 | Cc1c([C@@H](C)Nc2nnc(C)c3cnc(N4C[C@@H]5C[C@H]4CO5)cc23)cccc1C(F)(F)F [Example 12-8] | 1.14 | 38 | – | – | –
13 | Cc1c(C#N)cccc1[C@@H](C)Nc1nnc(C)c2cnc(N3CCN4CCOC[C@@H]4C3)cc12 [Example 12-27] | 2.81 | 14 | – | – | –
14 | Cc1c([C@@H](C)Nc2nnc(C)c3cnc(N4C[C@H](C)O[C@@H](C)C4)cc23)cccc1C(F)(F)F [Example 12-6] | 0.87 | 522 | – | – | –
15 | Cc1nnc(N[C@H](C)c2cccc(C(F)(F)F)c2F)c2cc(N3CC(C)(O)C3)ncc12 [Example 12-61] | 1.68 | 21 | – | – | –
16 | Cc1c([C@@H](C)Nc2nnc(C)c3ccc(N4CCNC[C@@H](F)C4)cc23)cccc1C(F)(F)F [Example 10-63, 7-((R)-6-fluoro-1,4-diazepan-1-yl)-4-methyl-N-((R)-1-(2-methyl-3-(trifluoromethyl)phenyl)ethyl)phthalazin-1-amine Hydrochloride salt] | – | – | 0.54 | 50 | –
17 | Cc1c(Cl)cccc1[C@@H](C)Nc1nnc(C)c2cnc(N3CCOCC3)cc12 [Example 6-18, (R)-N-(1-(3-chloro-2-methylphenyl)ethyl)-4-methyl-7-morpholinopyrido[3,4-d]pyridazin-1-amine] | 317 | 3700 | – | – | –
18 | Cc1nnc(N[C@H](C)c2cc(N)cc(C(F)(F)F)n2)c2cc(N3CC4CC(C3)O4)ncc12 [Example 16-13, N-((R)-1-(4-amino-6-(trifluoromethyl)pyridin-2-yl)ethyl)-7-(6-oxa-3-azabicyclo[3.1.1]heptan-3-yl)-4-methylpyrido[3,4-d]pyridazin-1-amine] | 25.8 | > 10000 | – | – | –

Row | SMILES | Ki [1, 2] [nM] | IC50 (pERK in MKN1 cells; [3]) [nM] | Ki [1] [nM] | IC50 (pERK in MKN1 cells; MKN-1) [nM] | IC50 (pERK in MKN1 cells; MKN-1, pERK inhibition, In-Cell Western, MKN1 or H358 cells (Table 24 does not say which), 0.5-1 hour incubation) [nM]
19 | Cc1nc2n(c1C)CCN(c1ccc3cnnc(N[C@H](C)c4cccc(C(F)(F)F)c4C)c3c1)C2 [Example 1-28, (R)-7-(2,3-dimethyl-5,6-dihydroimidazo[1,2-a]pyrazin-7(8H)-yl)-N-(1-(2-methyl-3-(trifluoromethyl)phenyl)ethyl)phthalazin-1-amine] | 0.17 | 61 | – | – | –
20 | Cc1nnc(N[C@H](C)c2cc(F)cc(C#N)c2)c2cc(N3CCOCC3)ccc12 [Example 10-52, (R)-3-fluoro-5-(1-((4-methyl-7-morpholinophthalazin-1-yl)amino)ethyl)benzonitrile] | 44.5 | 286 | – | – | –
21 | Cc1c([C@@H](C)Nc2nnc(C)c3cnc(N4CCC(C)(N(C)C)CC4)cc23)cccc1C(F)(F)F [Example 12-18] | 0.62 | 37 | – | – | –
22 | Cc1c(C#N)cccc1[C@@H](C)Nc1nnc(C)c2ccc(N3CC(N(C)C)C3)cc12 [Example 10-75, (R)-3-(1-((7-(3-(dimethylamino)azetidin-1-yl)-4-methylphthalazin-1-yl)amino)ethyl)-2-methylbenzonitrile Hydrochloride salt] | – | – | 6.51 | 56 | –
23 | Cc1c(C#N)cccc1[C@@H](C)Nc1nnc(C)c2ccc(N3CC(C)(O)C3)cc12 [Example 10-58, (R)-3-(1-((7-(3-hydroxy-3-methylazetidin-1-yl)-4-methylphthalazin-1-yl)amino)ethyl)-2-methylbenzonitrile] | 5.78 | 52 | – | – | –
24 | Cc1c(C#N)cccc1[C@@H](C)Nc1nnc(C)c2cnc(N3CCNCC3)cc12 [Example 12-25] | 2.41 | 35 | – | – | –
25 | Cc1c([C@@H](C)Nc2nnc(C)c3ccc(O[C@H]4CCN(C)C4)cc23)cccc1C(F)(F)F [Example 7-5, 4-methyl-N-((R)-1-(2-methyl-3-(trifluoromethyl)phenyl)ethyl)-7-(((S)-1-methylpyrrolidin-3-yl)oxy)phthalazin-1-amine] | 0.82 | 110 | – | – | –
26 | Cc1c(C#N)cccc1[C@@H](C)Nc1nnc(C)c2cc(F)c(N3CCNCC3)cc12 [Example 18-4, (R)-3-(1-((6-fluoro-4-methyl-7-(piperazin-1-yl)phthalazin-1-yl)amino)ethyl)-2-methylbenzonitrile] | 1.64 | 41 | – | – | –
27 | Cc1nnc(N[C@H](C)c2cccc(C(F)F)c2F)c2cc(N3CC(C)(O)C3)ncc12 [Example 12-101] | 1.45 | 22 | – | – | –
28 | Cc1c([C@@H](C)Nc2nncc3ccc(N4CCn5cncc5C4)cc23)cccc1C(F)(F)F [Example 1-48, (R)-7-(5,6-dihydroimidazo[1,5-a]pyrazin-7(8H)-yl)-N-(1-(2-methyl-3-(trifluoromethyl)phenyl)ethyl)phthalazin-1-amine] | 0.56 | 364 | – | – | –
29 | Cc1c([C@@H](C)Nc2nnc(C)c3cc(F)c(N4CCOCC4)cc23)cccc1C(F)(F)F [Example 18-2, (R)-6-fluoro-4-methyl-N-(1-(2-methyl-3-(trifluoromethyl)phenyl)ethyl)-7-morpholinophthalazin-1-amine] | – | – | 5.27 | – | 380
30 | Cc1c(C#N)cccc1[C@@H](C)Nc1nnc(C)c2ccc(N3CCOCC3)cc12 [Example 10-51, (R)-2-methyl-3-(1-((4-methyl-7-morpholinophthalazin-1-yl)amino)ethyl)benzonitrile] | 1.4 | 39 | – | – | –
31 | Cc1c(C#N)cccc1[C@@H](C)Nc1nnc(C)c2ccc(N3CCN4CCCC[C@@H]4C3)cc12 [Example 10-82, 2-methyl-3-((R)-1-((4-methyl-7-((R)-octahydro-2H-pyrido[1,2-a]pyrazin-2-yl)phthalazin-1-yl)amino)ethyl)benzonitrile Hydrochloride salt] | – | – | 0.86 | 52 | –
32 | Cc1c([C@@H](C)Nc2nnc(C)c3cnc(N4C5CCC4COC5)cc23)cccc1C(F)(F)F [Example 12-31] | 1.02 | 70 | – | – | –
33 | Cc1c([C@@H](C)Nc2nnc(C)c3ccc(N4CCNS(=O)(=O)CC4)cc23)cccc1C(F)(F)F [Example 10-64, (R)-5-(1-methyl-4-((1-(2-methyl-3-(trifluoromethyl)phenyl)ethyl)amino)phthalazin-6-yl)-1,2,5-thiadiazepane 1,1-dioxide] | 1.7 | 513 | – | – | –
34 | Cc1c([C@@H](C)Nc2nnc(C)c3ccc(O[C@H]4CCOC4)cc23)cc(N)cc1C(F)(F)F [Example 15-3, N-((R)-1-(5-amino-2-methyl-3-(trifluoromethyl)phenyl)ethyl)-4-methyl-7-(((S)-tetrahydrofuran-3-yl)oxy)phthalazin-1-amine] | 0.94 | 34 | – | – | –
35 | Cc1c([C@@H](C)Nc2nnc(C)c3ccc(N4CCC5(CCN(C)C5=O)CC4)cc23)cccc1C(F)(F)F [Example 10-40, (R)-2-methyl-8-(1-methyl-4-((1-(2-methyl-3-(trifluoromethyl)phenyl)ethyl)amino)phthalazin-6-yl)-2,8-diazaspiro[4.5]decan-1-one] | 0.43 | 11 | – | – | –
36 | Cc1c(C#N)cccc1[C@@H](C)Nc1nnc(C)c2cnc(N3CC4CC(C3)O4)cc12 [Example 12-23] | 1.05 | 46 | – | – | –
